Laboratory results taken from ChEMBL document CHEMBL5321213, “Nicolaioidesin C: An Antiausterity Agent Shows Promising Antitumor Activity in a Pancreatic Cancer Xenograft Mouse Model” (J Nat Prod, 2023).
Activity calls are given as the source filed them. The rule behind the calls is not given here.

Experiments:
MIA PaCa-2 [1] = assay: Antimetastatic activity in human MIA PaCa-2 cells in nutrient-rich medium assessed as open wound area at 20 uM measured every 15 mins for 24 hrs by live cell imaging analysis (reference value: 62%); assay type: functional
MIA PaCa-2 [2] = assay: Antitumor activity against human MIA PaCa-2 cells xenografted in athymic BALB/c-nu mouse assessed as fold change in phenyl alanine level in tumor at 10 mg/kg/day, ip administered five times per week for 4 weeks by LC-MS analysis; assay type: functional
MIA PaCa-2 [3] = assay: Antitumor activity against human MIA PaCa-2 cells xenografted in athymic BALB/c-nu mouse assessed as fold change in tyrosine level in tumor at 2 mg/kg/day, ip administered five times per week for 4 weeks by LC-MS analysis; assay type: functional
[4] = Toxicity in athymic BALB/c-nu mouse xenografted with human MIA PaCa-2 cells assessed as body weight loss at 2 to 10 mg/kg/day, ip administered five times per week for 4 weeks; assay type: organism-based; conditions: in vivo, 672 h, dose 2-10 mg/kg/day
MIA PaCa-2 [5] = assay: Antitumor activity against human MIA PaCa-2 cells xenografted in athymic BALB/c-nu mouse assessed as fold change in tyrosine level in tumor at 10 mg/kg/day, ip administered five times per week for 4 weeks by LC-MS analysis; assay type: functional
PANC-1 [6] = assay: Inhibition of Akt/mTOR signaling pathway in human PANC-1 cells in DMEM media assessed as reduction in mTOR phosphorylation at S2481 residue at 5 to 20 uM measured after 6 hrs by Western blot analysis; assay type: cell-based; conditions: dose 5-20 µM
PANC-1 [7] = assay: Antimetastatic activity in human PANC-1 cells in DMEM media assessed as inhibition of colony formation at 40 uM incubated for 24 hrs followed by replacement with fresh medium and measured after 10 days by crystal violet staining-based assay relative to control; assay type: functional
MIA PaCa-2 [8] = assay: Antitumor activity against human MIA PaCa-2 cells xenografted in athymic BALB/c-nu mouse assessed as fold change in N-acetylneuraminicacid level in tumor at 10 mg/kg/day, ip administered five times per week for 4 weeks by LC-MS analysis; assay type: functional
MIA PaCa-2 [9] = assay: Preferential cytotoxicity against human MIA PaCa-2 cells in nutrient-deprived medium assessed as alteration in cell morphology by measuring cell rounding at 5 uM measured after 24 hrs by acridine orange and ethidium bromide dual fluorescent staining based imaging analysis; assay type: functional
MIA PaCa-2 [10] = assay: Antitumor activity against human MIA PaCa-2 cells xenografted in athymic BALB/c-nu mouse assessed as reduction in Akt phosphorylation at S473 residue in tumor at 10 mg/kg/day, ip administered five times per week for 4 weeks by Western blot analysis; assay type: functional, organism-based
MIA PaCa-2 [11] = assay: Antitumor activity against human MIA PaCa-2 cells xenografted in athymic BALB/c-nu mouse assessed as fold change in leucine level in tumor at 2 mg/kg/day, ip administered five times per week for 4 weeks by LC-MS analysis; assay type: functional
MIA PaCa-2 [12] = assay: Antitumor activity against human MIA PaCa-2 cells xenografted in athymic BALB/c-nu mouse assessed as fold change in hypoxanthine level in tumor at 2 mg/kg/day, ip administered five times per week for 4 weeks by LC-MS analysis; assay type: functional
MIA PaCa-2 [13] = assay: Antitumor activity against human MIA PaCa-2 cells xenografted in athymic BALB/c-nu mouse assessed as fold change in cytidine diphosphate ethanolamine level in tumor at 2 mg/kg/day, ip administered five times per week for 4 weeks by LC-MS analysis; assay type: functional
PANC-1 [14] = assay: Inhibition of autophagy in human PANC-1 cells in nutrient-deprived medium assessed as downregulation of LC3-I protein expression measured after 6 hrs by Western blot analysis; assay type: functional, cell-based; conditions: dose 5-20 µM
MIA PaCa-2 [15] = assay: Antitumor activity against human MIA PaCa-2 cells xenografted in athymic BALB/c-nu mouse assessed as fold change in serine level in tumor at 10 mg/kg/day, ip administered five times per week for 4 weeks by LC-MS analysis; assay type: functional
MIA PaCa-2 [16] = assay: Antitumor activity against human MIA PaCa-2 cells xenografted in athymic BALB/c-nu mouse assessed as reduction in p-Akt level in tumor at 2 to 10 mg/kg/day, ip administered five times per week for 4 weeks by immunohistochemistry analysis; assay type: functional, organism-based; conditions: dose 2-10 mg/kg/day
MIA PaCa-2 [17] = assay: Antitumor activity against human MIA PaCa-2 cells xenografted in athymic BALB/c-nu mouse assessed as fold change in 2'-deoxycytidine level in tumor at 2 mg/kg/day, ip administered five times per week for 4 weeks by LC-MS analysis; assay type: functional
PANC-1 [18] = assay: Inhibition of Akt/mTOR signaling pathway in human PANC-1 cells in DMEM media assessed as reduction in AKT phosphorylation at S473 residue at 5 to 20 uM measured after 6 hrs by Western blot analysis; assay type: cell-based; conditions: dose 5-20 µM
MIA PaCa-2 [19] = assay: Antitumor activity against human MIA PaCa-2 cells xenografted in athymic BALB/c-nu mouse assessed as fold change in alanine level in tumor at 10 mg/kg/day, ip administered five times per week for 4 weeks by LC-MS analysis; assay type: functional
MIA PaCa-2 [20] = assay: Antimetastatic activity in human MIA PaCa-2 cells in DMEM media assessed as inhibition of colony formation at 20 uM incubated for 24 hrs followed by replacement with fresh medium and measured after 10 days by crystal violet staining-based assay relative to control; assay type: functional
MIA PaCa-2 [21] = assay: Antitumor activity against human MIA PaCa-2 cells xenografted in athymic BALB/c-nu mouse assessed as fold change in N-acetyl-L-glutamicacid level in tumor at 10 mg/kg/day, ip administered five times per week for 4 weeks by LC-MS analysis; assay type: functional
MIA PaCa-2 [22] = assay: Antitumor activity against human MIA PaCa-2 cells xenografted in athymic BALB/c-nu mouse assessed as fold change in 3-sulfolactic acid level in tumor at 2 mg/kg/day, ip administered five times per week for 4 weeks by LC-MS analysis; assay type: functional
MIA PaCa-2 [23] = assay: Antitumor activity against human MIA PaCa-2 cells xenografted in athymic BALB/c-nu mouse assessed as fold change in cytosine level in tumor at 2 mg/kg/day, ip administered five times per week for 4 weeks by LC-MS analysis; assay type: functional
MIA PaCa-2 [24] = assay: Antitumor activity against human MIA PaCa-2 cells xenografted in athymic BALB/c-nu mouse assessed as tumor wet weight at 2 mg/kg/day, ip administered five times per week for 4 weeks (reference value: 368 mg); assay type: functional
MIA PaCa-2 [25] = assay: Antitumor activity against human MIA PaCa-2 cells xenografted in athymic BALB/c-nu mouse assessed as tumor growth inhibition at 10 mg/kg/day, ip administered five times per week for 4 weeks relative to control; assay type: functional; conditions: MIA PaCa-2, 672 h, read-out: TGI
MIA PaCa-2 [26] = assay: Antitumor activity against human MIA PaCa-2 cells xenografted in athymic BALB/c-nu mouse assessed as fold change in glycerol-3-phosphate level in tumor at 10 mg/kg/day, ip administered five times per week for 4 weeks by LC-MS analysis; assay type: functional
MIA PaCa-2 [27] = assay: Antitumor activity against human MIA PaCa-2 cells xenografted in athymic BALB/c-nu mouse assessed as fold change in alanine level in tumor at 2 mg/kg/day, ip administered five times per week for 4 weeks by LC-MS analysis; assay type: functional
MIA PaCa-2 [28] = assay: Antitumor activity against human MIA PaCa-2 cells xenografted in athymic BALB/c-nu mouse assessed as fold change in glutamic acid level in tumor at 2 mg/kg/day, ip administered five times per week for 4 weeks by LC-MS analysis; assay type: functional

SMILES: COc1cc(O)c(C(=O)[C@@H]2CC=C(CCC=C(C)C)C[C@H]2c2ccccc2)c(O)c1
- Activity (MIA PaCa-2 [1]): 87%
- fold change (FC) (MIA PaCa-2 [2]): 0.43
- fold change (FC) (MIA PaCa-2 [3]): 0.41
- Activity [4]: Non-Toxic
- fold change (FC) (MIA PaCa-2 [5]): 0.43
- inhibition (PANC-1 [6]): inactive
- inhibition at 40 µM (PANC-1 [7]): 92%
- fold change (FC) (MIA PaCa-2 [8]): 0.4
- Activity (MIA PaCa-2 [9]): Active
- Activity (MIA PaCa-2 [10]): Active
- fold change (FC) (MIA PaCa-2 [11]): 0.43
- fold change (FC) (MIA PaCa-2 [12]): 0.57
- fold change (FC) (MIA PaCa-2 [13]): 0.4
- inhibition (PANC-1 [14]): Dose-Dependent Effect
- fold change (FC) (MIA PaCa-2 [15]): 0.5
- Activity (MIA PaCa-2 [16]): Active
- fold change (FC) (MIA PaCa-2 [17]): 0.63
- inhibition (PANC-1 [18]): inactive
- fold change (FC) (MIA PaCa-2 [19]): 0.42
- inhibition at 20 µM (MIA PaCa-2 [20]): 95%
- fold change (FC) (MIA PaCa-2 [21]): 0.28
- fold change (FC) (MIA PaCa-2 [22]): 0.48
- fold change (FC) (MIA PaCa-2 [23]): 0.73
- Activity (MIA PaCa-2 [24]): 181 mg
- inhibition in vivo at 10 mg/kg/day (MIA PaCa-2 [25]): 68%
- fold change (FC) (MIA PaCa-2 [26]): 0.24
- fold change (FC) (MIA PaCa-2 [27]): 0.49
- fold change (FC) (MIA PaCa-2 [28]): 0.41
